Where a name gives a salt, the structure may show the parent alone.

For orientation: melting point means the temperature of the solid-liquid transition.

On to `CCc1cn(C)c(C2Cc3ccccc3N2C(C)=O)n1` (stereo not shown), for which the melting point was in the range of 105 to 106 °C.

Turning to `CCCc1cnc(C2Cc3ccccc3N2C(=O)C(C)N(C)C(=O)OC(C)C)[nH]1` (stereo not shown), the melting point is 77 to 80 °C.

As to `CCc1cnc(C2Cc3ccccc3N2C(=O)Nc2ccccc2[N+](=O)[O-])[nH]1` (stereo not shown), the melting point lay within 208 to 209 °C.

Take `CCCc1cnc(C2Cc3ccccc3N2C(C)=O)[nH]1` (stereo not shown): the melting point lay in the range of 174 to 175 °C.

`CCCc1nc(C2Cc3ccccc3N2C(C)=O)no1` (stereo not shown): the melting point lay in the range of 93 to 94 °C.

The compound `CCCc1cnc(C2Cc3ccccc3N2C(=O)C(N)CC)[nH]1` (stereo not drawn) (as salt: HCl) (hydrate or solvate) [Compound 15, [2S-[1(R*),2R*]]-α-ethyl-2,3-dihydro-β-oxo-2-(4-propyl-1H-imidazol-2-yl)-1H-indole-1-ethanamine dihydrochloride dihydrate] gave a melting point of 132 to 140 °C.

`CCc1cnc(C2Cc3ccccc3N2C(=O)Nc2ccccc2N)[nH]1` (stereo not shown) (as salt: trifluoroacetate) came in with a melting point of 106 to 108 °C.

For `CCc1cnc(C2Cc3ccccc3N2C(=O)c2ccccc2C(=O)O)[nH]1` (stereo not shown) (as salt: trifluoroacetate), the melting point was 98 to 103 °C.

As for `NCC(=O)N1c2ccccc2CC1c1nc2cc(C(=O)O)ccc2[nH]1` (stereo not shown) (as salt: trifluoroacetate) (hydrate or solvate) [Compound 62, 2-[1-(aminoacetyl)-2,3-dihydro-1H-indol-2-yl]-1H-benzimidazole-5-carboxylic acid monohydrate trifluoroacetate (1:2)], the melting point is 208 to 211 °C.

With `CCCc1nc(C2Cc3ccccc3N2C(=O)CN)no1` (stereo not drawn) (as salt: trifluoroacetate) [Compound 90, 2,3-dihydro-β-oxo-2-(5-propyl-1,2,4-oxadiazol-3-yl)-1H-indole-1-ethanamine trifluoroacetate (1:1)], the melting point was in the range of 160 to 162 °C.

Values taken from patent publication US7125891B2, “Tripeptidyl peptidase inhibitors” (Janssen Pharmaceutica N.V., priority 2000, dated 2006).
